One may read the melting point as the temperature of the solid-liquid transition. What is called Ki is the equilibrium dissociation constant of an inhibitor or competing ligand from its target. A lower Ki goes with tighter binding. Broadly, the IC50 is the midpoint of a concentration-inhibition curve. Higher therefore signals weaker potency in that assay.

Here are results for 4 molecules from patent US9034907B2, “Inhibitors of glutaminyl cyclase” (Probiodrug AG, priority 2007, dated 2015).

Data set [1] has as its target glutaminyl cyclase (QC) (Homo sapiens (Human), UniProt Q16769). Kind of data set: QC inhibitor assay (fluorometric / spectrophotometric QC activity assay with inhibitor added). As to conditions: 30° C.
Procedure: All measurements were performed with a BioAssay Reader HTS-7000Plus for microplates (Perkin Elmer) at 30° C. QC activity was evaluated fluorometrically using H-Gln-βNA. The samples consisted of 0.2 mM fluorogenic substrate, 0.25 U pyroglutamyl aminopeptidase (Unizyme, Hørsholm, Denmark) in 0.2 M Tris/HCl, pH 8.0 containing 20 mM EDTA and an appropriately diluted aliquot of QC in a final volume of 250 μl. Excitation/emission wavelengths were 320/410 nm. The assay reactions were initiated by addition of glutaminyl cyclase. QC activity was determined from a standard curve of β-naphthylamine under assay conditions. One unit is defined as the amount of QC catalyzing the formation of 1 μmol pGlu-βNA from H-Gln-βNA per minute under the described conditions.
In a second fluorometric assay, QC was activity determined using H-Gln-AMC as substrate. Reactions were carried out at 30° C. utilizing the NOVOStar reader for microplates (BMG labtechnologies). […] The kinetic data were evaluated using GraFit software.
Samples consisted of the respective QC substrate, 0.3 mM NADH, 14 mM α-Ketoglutaric acid and 30 U/ml glutamate dehydrogenase in a final volume of 250 μl. […] All samples were measured at 30° C., using either the [sequence]luor Plus or the Sunrise (both from TECAN) reader for microplates. Kinetic data was evaluated using GraFit software. […]

glutaminyl cyclase (QC), sequence (Q16769 29-361): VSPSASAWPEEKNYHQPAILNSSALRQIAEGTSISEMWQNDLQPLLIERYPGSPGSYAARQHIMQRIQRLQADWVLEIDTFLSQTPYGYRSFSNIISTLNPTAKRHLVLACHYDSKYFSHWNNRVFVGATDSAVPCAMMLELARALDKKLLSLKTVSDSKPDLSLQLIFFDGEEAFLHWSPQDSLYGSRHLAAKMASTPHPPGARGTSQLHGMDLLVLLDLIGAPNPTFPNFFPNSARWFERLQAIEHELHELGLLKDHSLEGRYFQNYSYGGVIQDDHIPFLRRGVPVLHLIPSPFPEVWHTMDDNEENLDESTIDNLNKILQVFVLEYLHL

On to `Cc1csc2c(=O)n(CCCn3ccnc3)c(=S)[nH]c12`, for which the melting point lay in the range of 225 to 227 °C. For `O=c1c2c3c(sc2[nH]c(=S)n1CCCn1ccnc1)CCCC3`, the melting point fell in the range of 118 to 120 °C. Molecule `O=c1c2ccccc2[nH]c(=S)n1CCCn1ccnc1` [Example 28, 2,3-dihydro-3-(3-(1H-imidazol-1-yl)propyl)-2-thioxoquinazolin-4(1H)-one] had a Ki in data set [1] (competitive inhibition fit of progress curves) of 0.3 µM. In data set [1] (QC inhibition), `O=c1c2ccccc2[nH]c(=S)n1-c1ccc2[nH]cnc2c1` [Example 43, 3-(1H-benzo[d]imidazol-5-yl)-2,3-dihydro-2-thioxo-quinazolin-4(1H)-one] registered an IC50 of 121 µM.
